“Also recorded” adds a separate entry of the source.
Legend:
[1] = test system: HCT-15 cells; experiment: CellTiter-Glo cell viability assay (cytotoxicity), HCT-15; type: cell-based; conditions: Homo sapiens, 48 h, P-gp expressing, mean ± SEM
Experimental: (§1) The human lung adenocarcinoma cell line A549 was cultured in DMEM medium supplemented with 10% fetal bovine serum (FBS), 100 U/mL penicillin and 100 μg/mL streptomycin. P-gp-expressing human colon adenocarcinoma cells HCT-15 were cultured in RPMI 1640 medium supplemented with 10% FBS, 100 U/mL penicillin and 100 μg/mL streptomycin. BCRP-expressing MCF-7/MX human breast adenocarcinoma cells were cultured in DMEM medium supplemented with 10% FBS, 100 U/mL penicillin and 100 μg/mL streptomycin. MRP1-expressing H69AR human small cell lung cancer cells were cultured in RPMI 1640 medium (ATCC modification) supplemented with 20% FBS, 100 U/mL penicillin and 100 μg/mL streptomycin. All cancer cell lines employed have been systematically characterized regarding their respective ABC transporter expression profile ([Sachs et al., 2019]).
(§2) Cytotoxic activity of test compounds was analyzed after 48 h using the CellTiter-Glo Luminescent Cell Viability Assay published previously ([Weber et al., 2017]) in 384-well plates with the following cell densities: A549, MCF-7/MX: 2 × 10^3 cells/well; HCT-15: 3 × 10^3 cells/well; H69AR: 5 × 10^3 cells/well. Pipetting was conducted with the CyBi-Well 96-channel simultaneous pipettor (Analytik Jena AG, Jena, Germany). For generation of dose-response curves and calculation of IC50 values, the four-parameter logistic model was applied.

[2] = test system: H69AR cells; experiment: CellTiter-Glo cell viability assay (cytotoxicity), H69AR; type: cell-based; conditions: Homo sapiens, 48 h, MRP1-expressing, mean ± SEM
Experimental: as §1, §2

[3] = biological target: T1, Pdr5 (Saccharomyces cerevisiae, UniProt P33302); experiment: Pdr5 ATPase assay (oligomycin-sensitive) in plasma membrane preparations; type: biochemical; conditions: highest concentrations (10 mM), in comparison to Pdr5 WT in the absence of any compound
T1 construct: effect on (A) the transport activity of Pdr5 WT and (B) their effect on the ATPase activity; made in house; host or cells: S. cerevisiae YRE1001 (pdr1-3 background), isolated plasma membranes
Experimental: Saccharomyces cerevisiae cells expressing Pdr5 WT or the E1036Q (EQ) mutant were cultured to an OD600 of 1.5 in YPD-media at 25°C. The nitrogen source was replenished by addition of a 10th volume of 5x YP (50 g/l yeast extract, 100 g/l peptone). The cells were grown to an OD of 3.5 and harvested (5000 ×g at 4°C for 15 min). The isolation of Pdr5 containing PMs was performed as described ([Kolaczkowski et al., 1996]; [Ernst et al., 2008]).
Oligomycin (OM)-sensitive ATPase activity was measured from 0.8 μg PM containing Pdr5 incubated with 2 mM ATP, 5 mM MgCl2 in 270 mM TRIS-glycine buffer (pH 9.5) and 2.5 μl of the test compounds or DMSO as a control in a total volume of 100 μl. To reduce the background activities, 0.2 mM ammonium molybdate, 10 mM NaN3 and 50 mM KNO3, respectively, were added ([Dufour et al., 1988]; [Goffeau and Dufour, 1988]). In a second assay, OM (20 μg/ml) was added to an otherwise identical setup. After incubation at 30°C for 20 min, the reaction was stopped by adding 25 μl of the reaction to 175 μl 40 mM H2SO4. The amount of released inorganic phosphate was determined by a colometric assay in 96-well plates ([Goffeau and Dufour, 1988]; [Decottignies et al., 1994]; [Wada et al., 2002]). The difference of both assays ( ± OM) corresponds to the specific ATPase activity of Pdr5 ([Ernst et al., 2008]).

[4] = test system: MCF-7/MX cells; experiment: CellTiter-Glo cell viability assay (cytotoxicity), MCF-7/MX; type: cell-based; conditions: Homo sapiens, MCF7/MX; 48 h, BCRP-expressing, mean ± SEM
Experimental: as §1, §2

[5] = test system: P-gp expressing HCT-15 cells; experiment: Sensitization of HCT-15 cells to doxorubicin (co-treatment, cell viability); type: cell-based, human; conditions: for Fold change of doxorubicin IC50: IC50 (drug alone)/IC50 (drug with modulator)
Experimental: as §2
(§3) The ability of identified inhibitors of P-gp and BCRP to sensitize HCT-15 or MCF-7/MX cells to chemotherapy was analyzed by co-treatment with test compounds and doxorubicin or mitoxantrone, respectively. Cells were incubated with a serial dilution of the chemotherapeutic drug alone or in combination with fixed concentrations of the test compounds or positive controls (2.5 μM PSC833 and 1 μM Ko143, respectively). Fold change of drug IC50 was calculated with the formula IC50 (drug alone)/IC50 (drug with modulator).

[6] = test system: BCRP-expressing MCF-7/MX cells; experiment: Sensitization of MCF-7/MX cells to mitoxantrone (co-treatment, cell viability); type: cell-based, human; conditions: for Fold change of mitoxantrone IC50: IC50 (drug alone)/IC50 (drug with modulator)
Experimental: as §2, §3

[7] = test system: S. cerevisiae strain expressing Pdr5 EQ; experiment: Liquid drug assay, yeast strain expressing Pdr5 EQ mutant; type: cell-based, Saccharomyces cerevisiae; conditions: serial dilutions, 48 h, 30°C, OD600
Experimental: (§4) The following S. cerevisiae yeast strain was used: YRE1001 (MATa ura3-52 trp1-1 leu2-3,112 his3-11,15 ade2-1 pdr1-3 pdr5pdr5promΔ::TRP1). S. cerevisiae was cultured in YPD medium (10 g/L yeast extract, 20 g/L peptone, 2% glucose) at 30°C and 200 rpm. The yeast strain has been described previously ([Ernst et al., 2008]; [Gupta et al., 2014]). Based on these studies it is evident that Pdr5 localizes to the PM and is present in approximately 10% of the overall membrane protein content of the PM.
(§5) The liquid drug assay was carried out in sterile 96-well plates. 50 μl of yeast cell culture at an OD600 of 0.15 were mixed with 193.75 μl YPD and 6.25 μl of the test compound or DMSO as a negative control. To distinguish between cytotoxic compounds and those which inhibit Pdr5 WT specifically, the Pdr5 substrate ketoconazole was added only to cultures expressing wild-type Pdr5 in a final concentration of 1 μg/ml. At this concentration, inhibition of Pdr5 would result in ketoconazole-mediated cell death. After 48 h at 30°C the growth was measured with an ELISA plate reader (BioRad, Hercules, CA, United States) at 595 nm.

[8] = test system: S. cerevisiae strain expressing Pdr5 WT; experiment: Liquid drug assay, yeast strain expressing Pdr5 WT; type: cell-based, Saccharomyces cerevisiae; conditions: serial dilutions, 48 h, 30°C, OD600
Experimental: as §4, §5

T1 sequence (P33302 whole entry): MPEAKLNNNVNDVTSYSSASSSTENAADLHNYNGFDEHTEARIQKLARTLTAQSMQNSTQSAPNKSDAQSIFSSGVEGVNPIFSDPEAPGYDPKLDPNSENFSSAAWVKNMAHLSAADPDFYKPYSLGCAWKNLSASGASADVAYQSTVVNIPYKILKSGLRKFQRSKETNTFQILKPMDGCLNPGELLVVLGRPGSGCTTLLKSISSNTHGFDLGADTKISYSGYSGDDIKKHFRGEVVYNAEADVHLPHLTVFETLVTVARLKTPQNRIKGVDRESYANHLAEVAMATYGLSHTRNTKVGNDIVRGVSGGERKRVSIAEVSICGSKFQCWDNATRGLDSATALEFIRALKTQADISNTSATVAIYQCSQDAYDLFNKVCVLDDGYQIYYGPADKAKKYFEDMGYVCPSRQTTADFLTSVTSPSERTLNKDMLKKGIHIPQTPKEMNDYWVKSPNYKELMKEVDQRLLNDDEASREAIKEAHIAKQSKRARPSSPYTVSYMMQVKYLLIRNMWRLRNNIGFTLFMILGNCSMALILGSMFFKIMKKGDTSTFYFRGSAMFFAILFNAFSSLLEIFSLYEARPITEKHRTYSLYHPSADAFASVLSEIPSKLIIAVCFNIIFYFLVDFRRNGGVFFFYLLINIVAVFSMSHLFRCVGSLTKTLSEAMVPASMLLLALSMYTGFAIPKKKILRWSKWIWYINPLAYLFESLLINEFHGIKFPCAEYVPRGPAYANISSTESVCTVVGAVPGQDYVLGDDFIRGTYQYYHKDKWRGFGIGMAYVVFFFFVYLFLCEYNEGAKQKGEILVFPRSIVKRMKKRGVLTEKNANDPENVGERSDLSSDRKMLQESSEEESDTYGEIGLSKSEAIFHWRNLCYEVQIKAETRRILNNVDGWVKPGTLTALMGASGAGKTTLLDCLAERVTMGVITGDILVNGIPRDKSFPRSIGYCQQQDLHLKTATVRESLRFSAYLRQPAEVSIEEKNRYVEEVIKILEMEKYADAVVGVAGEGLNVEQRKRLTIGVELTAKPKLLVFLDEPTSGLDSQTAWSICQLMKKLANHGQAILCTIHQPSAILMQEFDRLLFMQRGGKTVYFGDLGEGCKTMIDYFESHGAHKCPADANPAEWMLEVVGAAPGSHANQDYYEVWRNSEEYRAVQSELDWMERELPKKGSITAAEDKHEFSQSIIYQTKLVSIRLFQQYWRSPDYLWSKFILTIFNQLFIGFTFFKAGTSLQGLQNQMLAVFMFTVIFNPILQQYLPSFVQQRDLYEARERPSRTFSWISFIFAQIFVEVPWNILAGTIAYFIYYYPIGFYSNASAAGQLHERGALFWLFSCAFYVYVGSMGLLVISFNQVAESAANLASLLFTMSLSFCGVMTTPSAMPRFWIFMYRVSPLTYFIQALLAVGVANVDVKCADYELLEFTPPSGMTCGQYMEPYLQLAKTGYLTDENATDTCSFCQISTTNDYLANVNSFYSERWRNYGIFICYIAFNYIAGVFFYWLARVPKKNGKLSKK

COc1cc(O)c2c(c1)C[C@H](C)OC2=O [Angelicoin B (4), angelicoin B]
IC50 [1]: > 100 µM | IC50 [2]: > 100 µM | ATPase activity of Pdr5 WT inhibited to (initial screen) ([3]; listed as 4): nearly no effect | ATPase activity of Pdr5 WT inhibited to (initial screen) ([3]; listed as angelicoin (4)): no effect | ATPase activity of Pdr5 WT inhibited to (initial screen) ([3]; listed as angelicoin B (4)): no inhibitory effect | IC50 [4]: > 100 µM

COc1cc(O)c2c(c1)CCOC2=O [Compound 14]
Sensitization of HCT-15 cells to doxorubicin (in words) [5]: did not sensitize the cells to doxorubicin | Fold change of doxorubicin IC50 ([5]; +20 μM of the modulator): 0.89 | Fold change of doxorubicin IC50 ([5]; +50 μM of the modulator): 0.80 | Sensitization of MCF-7/MX cells to mitoxantrone (in words) [6]: did not have a significant influence | Fold change of mitoxantrone IC50 ([6]; +10 μM of the modulator): 1.01 | Fold change of mitoxantrone IC50 ([6]; +20 μM of the modulator): 0.77 | Fold change of mitoxantrone IC50 ([6]; +50 μM of the modulator): 0.78 | IC50 [1]: > 100 µM | IC50 [2]: > 100 µM | ATPase activity of Pdr5 WT inhibited to (initial screen) [3]: nearly no effect; also recorded: no inhibitory effect | IC50 [4]: > 100 µM

CCCCCC1Cc2cc(OC)cc(O)c2C(=O)O1 (stereo not drawn) [Compound 16]
Fold change of doxorubicin IC50 ([5]; +20 μM of the modulator): 0.98 | Fold change of doxorubicin IC50 ([5]; +50 μM of the modulator): 3.7 | Fold change of mitoxantrone IC50 ([6]; +10 μM of the modulator): 0.93 | Fold change of mitoxantrone IC50 ([6]; +20 μM of the modulator): 3.70 | Fold change of mitoxantrone IC50 ([6]; +50 μM of the modulator): 5.6 | IC50 [1]: > 100 µM | IC50 [2]: 88.5 ± 4.6 µM | IC50 [4]: > 100 µM

CCCCCC1Cc2cc(OC)cc(OC)c2C(=O)O1 (stereo not drawn) [Compound 16a]
Effect on growth of yeast strain expressing Pdr5 EQ mutant [7]: inhibited the growth of the mutant strain slightly at the highest tested concentration | IC50 [1]: > 100 µM | IC50 [2]: > 100 µM | IC50 [4]: 10.6 ± 0.9 µM | Effect on growth of yeast strain expressing Pdr5 WT [8]: no effect on the wild-type strain

Reference: article PMC6476959, “Novel 3,4-Dihydroisocoumarins Inhibit Human P-gp and BCRP in Multidrug Resistant Tumors and Demonstrate Substrate Inhibition of Yeast Pdr5” (Frontiers in Pharmacology, 2019)
